Here are results for 14 molecules from ChEMBL document CHEMBL3046688, “Antitumor and Anti-Pneumocystis Carinii Activities of Novel Bisbenzamidines” (Med Chem Res, 2005).

The subject of series [1] is Pneumocystis carinii. The experiment in a line: Antimicrobial activity against Pneumocystis carinii assessed as ATP level detection by bioluminescence assay. Format: functional, organism-based.
The subject of a further series is DNA. The experiment in a line: Binding affinity to Bos taurus (calf) thymus DNA at 1:5 compound to DNA base pair ratio. The format is nucleic-acid assay.
Another series deals with MCF7. Description: Cytotoxicity against Homo sapiens (human) MCF7 cells at 100 uM after 48 hr by SRB assay relative to control. Format: cell-based. The settings on record: mcf7, 48 h.
A further series relates to NCI-H460. Description: Cytotoxicity against Homo sapiens (human) NCI-H460 cells at 100 uM after 48 hr by SRB assay relative to control. Format: cell-based. As to conditions: nci-h460, 48 h. Background: Sulforhodamine B stains cellular protein and so reports cell mass.
The nature of series [2]: Binding affinity to Poly (dA-dT) DNA at 1:5 compound to DNA base pair ratio.
The next series relates to SF-268. Description: Cytotoxicity against Homo sapiens (human) SF268 cells at 100 uM after 48 hr by SRB assay relative to control. The format is cell-based. The settings on record: sf-268, 48 h.
In another series the test system is CAKI-1. Description: Growth inhibition of Homo sapiens (human) Caki1 cells after 48 hr by SRB assay. Format: cell-based. The settings on record: caki-1, 48 h.
Another series deals with A498. The experiment in a line: Growth inhibition of Homo sapiens (human) A498 cells after 48 hr by SRB assay. As to conditions: a498, 48 h. Format: cell-based.
A further series concerns SN12C. Description: Growth inhibition of Homo sapiens (human) SN12C cells after 48 hr by SRB assay. The format is cell-based.
Series [3] can be described thus: Selectivity index, ratio of GI50 for human tumor cells to IC50 for Pneumocystis carini.
Another series has as its system SR. Description: Growth inhibition of Homo sapiens (human) SR cells after 48 hr by SRB assay. The format is cell-based.
In another series the test system is Malme-3M. The experiment in a line: Growth inhibition of Homo sapiens (human) MALME-3M cells after 48 hr by SRB assay. The format is cell-based.
Series [4] relates to Pneumocystis carinii. The experiment in a line: Ratio of pentamidine IC50 to compound IC50 for Pneumocystis carinii assessed as ATP level detection by bioluminescence assay. Format: functional.
A short description of series [5]: Growth inhibition of Homo sapiens (human) ovarian cancer cells after 48 hr by SRB assay. The format is cell-based. The settings on record: cancer cell lines.

On to `N#Cc1ccc(N2CCN(c3ccc(C#N)cc3)CC2)cc1`, for which the half-maximal inhibitory concentration (IC50) (in general, the point on the concentration scale where inhibition reaches its midpoint) with Pneumocystis carinii [1] was more than 125000 nM. Moreover, the thermal shift (ΔTm) (in general, the change in melting temperature against a reference sample) was 0 °C in the series on DNA and -0.2 °C in [2]. In addition, the Activity in the series on MCF7 turned out to be 102%; with NCI-H460, 106%; in the series with SF-268, 105%.
`N=C(N)c1ccc(N2CCCN(c3ccc(C(=N)N)cc3)CC2)cc1`: the pGI50 in the series with CAKI-1, with A498 and in the series on SN12C was 5.1 in each case. For the same molecule, the IC50 with Pneumocystis carinii [1] worked out at 2000 nM. The ΔTm in the series on DNA was determined as 15 °C; in series [2], 23.1 °C. In addition, the figures for the Activity in the series on MCF7, in the series on NCI-H460 and in the series with SF-268 were 87%, 44% and 94%, respectively. Moreover, in series [3], the “Selectivity Index” value is reported as 32.
In the case of `N=C(NC1CC1)c1ccc(N2CCCN(c3ccc(C(=N)NC4CC4)cc3)CC2)cc1`, the IC50 with Pneumocystis carinii [1] came to 1400 nM. Further, the ΔTm with DNA worked out at 15.3 °C; in [2], 23.6 °C. Besides, the figures for the Activity with MCF7, in the series on NCI-H460 and in the series with SF-268 were 87%, 71% and 104%, respectively. Moreover, in series [3], the “Selectivity Index” value is on record as more than 71.
As to `c1cc(N2CCCN(c3ccc(C4=NCCCN4)cc3)CC2)ccc1C1=NCCCN1`, the IC50 in the series on Pneumocystis carinii [1] amounted to 4500 nM. Besides, the Activity entry is “Toxic” in the series with A498; 42% in the series with MCF7; “Toxic” with SN12C; 28% in the series on NCI-H460; 55% in the series with SF-268. Also, the shift in melting temperature (ΔTm) in the series on DNA amounted to 15.5 °C; in series [2] it was 21.3 °C. In addition, the “Selectivity Index” value in [3] was found to be 18.
For `CCCCNC(=N)c1ccc(N2CCCN(c3ccc(C(=N)NCCCC)cc3)CC2)cc1`, in the series with Pneumocystis carinii [1], the IC50 is 357 nM. For the same molecule, the negative-log GI50 (pGI50) (in general, the negative decadic logarithm of the GI50, by convention in mol/L) worked out at 6.8 in the series on A498, 6.2 in the series on SR and 6.4 in the series with Malme-3M. The ΔTm in the series with DNA is 11.8 °C; in series [2], 13.3 °C. Moreover, the Activity in the series on MCF7 turned out to be 39%; in the series with NCI-H460, 17%; in the series with SF-268 it was 101%. Also, the “Selectivity Index” value in [3] was 36.
Take `N=C(N)c1ccc(NC(=O)CCCC(=O)Nc2ccc(C(=N)N)cc2)cc1`: the “Ratio IC50” value in the series with Pneumocystis carinii [4] came out at 167. The ΔTm with DNA worked out at 5.6 °C; in series [2] it was 11.4 °C. The Activity in the series with MCF7 was found to be 122%; with NCI-H460, 105%; with SF-268, 121%. In series [3], the “Selectivity Index” value is reported as more than 33333.
Take `N=C(N)c1ccc(COc2ccccc2OCc2ccc(C(=N)N)cc2)cc1`: the pGI50 with CAKI-1, with A498 and with SN12C was 5.1 throughout. Also, in the series on Pneumocystis carinii [1], the IC50 is 1700 nM. Further, the thermal shift (ΔTm) is 0.1 °C in the series on DNA and -0.1 °C in series [2]. Moreover, the Activity is listed as 42% in the series on MCF7, 5% in the series on NCI-H460 and 27% with SF-268. In addition, in [3], the “Selectivity Index” value was 24.
Take `c1cc(N2CCN(c3ccc(C4=NCCCN4)cc3)CC2)ccc1C1=NCCCN1`: in the series with Pneumocystis carinii [1], the IC50 was determined as 3000 nM. Moreover, the Activity entry with A498 was “Toxic”; in the series on MCF7, 77%; in the series with SN12C, “Toxic”; with NCI-H460, 18%; in the series with SF-268 it was 93%. Besides, the ΔTm in the series with DNA is 12.2 °C; in series [2], 17.9 °C. Moreover, the “Selectivity Index” value in [3] is more than 33.
As for `N#Cc1ccc(N2CCCN(c3ccc(C#N)cc3)CC2)cc1`, the Activity in the series on MCF7 was 70%; in the series on NCI-H460, 92%; with SF-268, 101%.
On to `N=C(N)c1ccc(OCc2cccc(COc3ccc(C(=N)N)cc3)c2)cc1`, for which the IC50 with Pneumocystis carinii [1] is 2600 nM. The Activity entry is given as “Non-toxic” in series [5], 0% with MCF7, 0% in the series on NCI-H460 and 0% in the series on SF-268. Moreover, the ΔTm worked out at 14 °C with DNA and 23.9 °C in series [2]. For the same molecule, in series [3], the “Selectivity Index” value worked out at 3.
`N=C(N)c1ccc(NC(=O)CCCCC(=O)Nc2ccc(C(=N)N)cc2)cc1`: in the series on Pneumocystis carinii [4], the “Ratio IC50” value is reported as 167. The ΔTm in the series with DNA was 8.7 °C; in [2], 14.4 °C. For the same molecule, the Activity in the series with MCF7 is recorded as 34%; with NCI-H460, 75%; with SF-268, 52%. In [3], the “Selectivity Index” value is more than 50000.
On to `N=C(N)c1ccc(OCCCCCOc2ccc(C(=N)N)cc2)cc1` [PENTAMIDINE], for which the ΔTm came out at 11.6 °C in the series on DNA and 20.6 °C in series [2]. The “Selectivity Index” value in series [3] came out at 20.
`N=C(N)c1ccc(OC(=O)c2ccc(C(=O)Oc3ccc(C(=N)N)cc3)cc2)cc1` [BIS(4-CARBAMIMIDOYLPHENYL)TEREPHTHALATE]: the thermal shift (ΔTm) in the series on DNA stood at 9.9 °C; in [2] it was 10.4 °C. For the same molecule, the Activity in the series on MCF7 was found to be 79%; in the series with NCI-H460 it was 96%; in the series with SF-268, 94%. For the same molecule, the “Selectivity Index” value in series [3] was more than 8.
For `N=C(NC1CC1)c1ccc(N2CCN(c3ccc(C(=N)NC4CC4)cc3)CC2)cc1`, the IC50 in the series with Pneumocystis carinii [1] stood at 5400 nM. Further, the ΔTm was 14.5 °C in the series on DNA and 23.9 °C in series [2]. The Activity stood at 108% with MCF7, 74% in the series on NCI-H460 and 115% with SF-268. Also, in series [3], the “Selectivity Index” value is listed as more than 19.
